How the values were obtained:
[1] = tested on: H3K9me2 in MDA-MB-231 cells; assay: MDA-MB-231 H3K9me2 in-cell western assay (EHMT2 ICW); assay type: cell-based; settings: Homo sapiens, Table 3A, read-out: ICW (IC50 μM)
Outline: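 MDA-MB-231 cells (3,000/well) were exposed to compound for 48 h at 37 °C, 30 min at room temperature, then a further 48 h. Fixed cells were immunostained for H3K9me2 with DRAQ5 co-stain and read by infrared imaging at 700/800 nm. Inhibition was set against DMSO and UNC0638 wells; IC50 from four-parameter fit (top 100%, bottom 0%), triplicates.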

human EHMT2 913-1193 = biological target: T1, human EHMT2 913-1193 (Homo sapiens, UniProt Q96KQ7); assay: EHMT2 enzyme assay on histone peptide substrate; assay type: biochemical; settings: Table 3A; histone H3 1-15 peptide, balanced conditions; read-out: EHMT2 (IC50 μM)
T1 construct: recombinant purified human EHMT2 913-1193, Viva; purchased Viva
T1 sequence (Q96KQ7 913-1193): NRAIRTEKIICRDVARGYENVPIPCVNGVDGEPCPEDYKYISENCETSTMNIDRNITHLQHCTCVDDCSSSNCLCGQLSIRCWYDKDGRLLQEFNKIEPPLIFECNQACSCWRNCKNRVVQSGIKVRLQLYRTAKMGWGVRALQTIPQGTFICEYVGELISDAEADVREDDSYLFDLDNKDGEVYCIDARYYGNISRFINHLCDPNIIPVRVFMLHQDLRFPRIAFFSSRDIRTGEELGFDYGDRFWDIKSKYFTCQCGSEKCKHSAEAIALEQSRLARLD
Outline: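 Human EHMT2 913-1193 (0.031 nM) was preincubated 30 min with compound (10-point 3-fold series, top 50 μM final, 2% DMSO) in Bicine pH 7.5 buffer. Reaction ran 60 min at room temperature with ³H-SAM and biotinylated H3 1-15 peptide, both at Km. Methylated peptide was captured on streptavidin Flashplates; 1 mM SAH defined 100% inhibition.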

Structure (SMILES) | IC50 [1] | IC50 (human EHMT2 913-1193)
CNCc1cc(-c2c(OC)ccc(Nc3nc(C)cc(NC)n3)c2F)no1 [Compound A14, N2-(2-fluoro-4-methoxy-3-[5-[(methylamino)methyl]-1,2-oxazol-3-yl]phenyl)-N4,6-dimethylpyrimidine-2,4-diamine] | 0.1 to 1 µM | 0.01 to 0.1 µM
CNCc1cn(-c2cc3c(cc2Cl)C2(CCC2)C(N)=N3)nn1 [Compound A15, 5′-chloro-6′-(4-((methylamino)methyl)-1H-1,2,3-triazol-1-yl)spiro[cyclobutane-1,3′-indol]-2′-amine] | 0.1 to 1 µM | 0.01 to 0.1 µM
CNC1=Nc2cc(-n3cc(CN4CCC4)cn3)c(Cl)cc2C12CCC2 [Compound A17, 6′-(4-(azetidin-1-ylmethyl)-1H-pyrazol-1-yl)-5′-chloro-N-methylspiro[cyclobutane-1,3′-indol]-2′-amine] | 0.1 to 1 µM | 0.01 to 0.1 µM
CNc1cc(C)nc(Nc2ccc(OC)c(-n3cc4c(n3)CCNC4)c2F)n1 [Compound A19, N2-(2-fluoro-4-methoxy-3-(4,5,6,7-tetrahydro-2H-pyrazolo[4,3-c]pyridin-2-yl)phenyl)-N4,6-dimethylpyrimidine-2,4-diamine] | 0.1 to 1 µM | 0.1 to 1 µM
CNCc1cn(-c2c(OC)cc3c(c2F)N=C(NC)C32CCC2)nn1 [Compound A21] | 0.1 to 1 µM | 0.01 to 0.1 µM
CNCc1cn(-c2c(OC)cc3c(c2F)N=C(N)C32CCC2)nn1 [Compound A22] | 0.1 to 1 µM | 0.01 to 0.1 µM

Source: patent publication US20200317642A1, “AMINE-SUBSTITUTED HETEROCYCLIC COMPOUNDS AS EHMT2 INHIBITORS AND DERIVATIVES THEREOF” (Epizyme, Inc., priority 2017, published 2020)
